From patent US9695219B2, “Polypeptide having antibacterial activity and angiogenesis-inducing activity and wound-healing drug containing said polypeptide” (priority 2009, dated 2017)
Where a SMILES comes first, the peptide text is derived from it. [ ]: non-standard residue; d: D form.

Columns and labels:
[1] = Stability in human serum (HPLC); format: in vitro ADME; conditions: 37° C.
Protocol: The stability of the polypeptides in serum was evaluated. In human serum (purchased from KAC Co., Ltd.), or in rat serum obtained by collecting blood from a rat, then leaving the collected blood to stand at room temperature followed by centrifugation, each of the peptides was dissolved so as to attain a final concentration of 500 μg/mL, and the obtained solutions were left to stand at 37° C. After leaving to stand for 3 min or 10 min, these solutions were subjected to HPLC chromatogram analysis to detect peaks of the decomposition products, and calculate the ratio of the concentration of the peptides which remained in the solutions relative to the starting concentration. In addition, the half-lives of the peptides in serum were also calculated.

[2] = test system: diabetes full-thickness defect flap model, hairless rats; assay: Effect to heal diabetic skin ulcers in diabetes flap model; format: in vivo, rat; conditions: 0.2 μg/μL
Protocol: For the purpose of producing a diabetes model, 7-week old male hairless rats (HWY/slc) were used, and, on the day before full-thickness defect flaps were created, the blood sugar level was measured and streptozotocin was administered once in tail vein (65 mg/kg). The full-thickness defect flap model was produced by measuring the blood sugar level of the rats on the day after the administration of streptozotocin and deciding only the individuals whose blood sugar level was not less than 300 mg/dL as the diabetes model. The full-thickness defect flaps were created by first creating on the back of each rat a pedicle flap of 2×2 cm (square) whose basal part was on its tail side, and then creating a full-thickness defect site (including dermal layer defect) of 1.4×1.4 cm (square: about 2 cm^2) in the central part of the created pedicle flap. Then, the flap sites were immediately sutured to obtain the full-thickness defect flap model. The model is a model of a diabetic intractable wound or skin ulcer, since the model also lacks dermal layer. […] Thereafter, on every measurement day, the test substance was administered once a day; the change of the area of the wound was calculated by measured values from a digital caliper and digital images; and the area where the wounds had still not healed was measured to calculate the ratio of it relative to the area where the wounds were created (Day 0).

[3] = test system: burn-ulcer model, hairless rats; assay: Effect to heal burn ulcers; format: in vivo, rat; conditions: 0.2 μg/μL (20 μg/wound), once a day
Protocol: A burn model was produced using 7-week old male hairless rats (HWY/slc), and the healing effect of the polypeptides of the present invention was examined. The burn-ulcer model was produced by contacting a red hot iron (at 100° C., φ12 mm) to the back of each rat for 5 seconds under anesthesia with ether to induce a burn. […] On the day after inducing the burn, the necrotic skin was surgically removed to obtain a burn model. After producing the burn model, the test substance was administered onto the wound site, and a covering was used to cover over that (Day 0). Only a covering was used in the Control. Thereafter, the test substance was administered once a day on every measurement day. And, on Day 6 and Day 8, the change of the area of the wound was measured by calculating measured values from a digital caliper and digital images, and the area where the burns had still not healed was measured to calculate the ratio of it relative to the area where the burns were created (Day 0). The concentration of the test substances were individually 0.2 μg/μL (20 μg/wound).

[4] = test system: Escherichia coli; assay: MIC measurement, broth microdilution; format: cell-based; conditions: 37° C. for 20 hours; tested twice, first/second value where not matched
Protocol: (§1) Further, with respect to not only the above-described strains but also various other strains, the “minimum inhibitory concentration (MIC)” was measured as follows. MIC is the lowest concentration of an agent that may inhibit the growth of a bacterium. MIC is used as a parameter for the efficacy of an antibacterial agent, for the strength of bacterial sensitivity, or the like. The bacteria can grow (proliferate) when the concentration is not higher than MIC, and cannot grow when the concentration is higher than MIC. Its measurement is carried out according to a method defined as a standard method by Japanese Society of Chemotherapy or CLINICAL AND LABORATORY […] (CLSI), but, in this Example, its measurement was carried out by a broth microdilution method in accordance with “M100-S17/M7-A7” (Performance Standards for Antimicrobial Susceptibility Testing; Seventeenth Informational Supplement, Vol. 27 No. 1) published by CLSI on January, 2007. That is, sensitivity test of agents was carried out using a microtiter plate or test tubes.
(§2) The bacteria were cultured in liquid media for 4 to 6 hours, and thereafter absorbances at A600 were measured. Bacterial suspensions were diluted with Mueller-Hinton broth (MHB) according to McFarland #0.5. Each strain was added so as to attain about 10^5 CFU/ml (final concentration). Each peptide was prepared to an optional concentration, and the solutions were serially diluted from the concentration. The polypeptide at each concentration stage was added to a microplate or test tubes, and the bacterial suspension was added thereto. Chloramphenicol, amphotericin B, ciprofloxacin, meropenem (MEPM), ciprofloxacin (CPFX), tobramycin (TOB) and oxacillin (OX) were used as positive controls. The plate was incubated at 37° C. for 20 hours, and the lowest concentration where bacterial growth was inhibited was regarded as the minimum inhibitory concentration.

[5] = test system: Staphylococcus epidermidis; assay: MIC measurement, broth microdilution; format: cell-based; conditions: 37° C. for 20 hours; tested twice, first/second value where not matched
Protocol: as §1, §2

[6] = test system: Pseudomonas aeruginosa (clinical strain 12); assay: MIC measurement, broth microdilution; format: cell-based; conditions: 37° C. for 20 hours; tested twice, first/second value where not matched
[7] = test system: Salmonella typhimurium; assay: microbe, parasite or virus in culture; format: cell-based; conditions: 37° C. for 20 hours; tested twice, first/second value where not matched
Protocol: as §1, §2

[8] = test system: Clostridium ramosum; assay: microbe, parasite or virus in culture; format: cell-based; conditions: 37° C. for 20 hours; tested twice, first/second value where not matched
Protocol: as §1, §2

[9] = test system: Bacteroides fragilis; assay: microbe, parasite or virus in culture; format: cell-based; conditions: 37° C. for 20 hours; tested twice, first/second value where not matched
Protocol: as §1, §2

SMILES: CC[C@H](C)[C@H](NC(=O)[C@H](CC(C)C)NC(=O)[C@H](CCCCN)NC(=O)[C@@H](N)CC(C)C)C(=O)N[C@@H](Cc1ccccc1)C(=O)N[C@@H](CC(C)C)C(=O)N[C@@H](Cc1c[nH]cn1)C(=O)N[C@@H](CCCNC(=N)N)C(=O)N[C@@H](CC(C)C)C(=O)N[C@@H](CCCCN)C(=O)N[C@@H](CCCNC(=N)N)C(=O)N[C@@H](CCSC)C(=O)N[C@@H](CCCNC(=N)N)C(=O)N[C@@H](CCCCN)C(=O)N[C@@H](CCCNC(=N)N)C(=O)N[C@@H](CC(C)C)C(=O)N[C@H](CCCCN)C(=O)N[C@@H](CCCNC(=N)N)C(=O)N[C@@H](CCCCN)C(N)=O [SR-08] (H-LKLIFLHRLKRMRKRL[dK]RK-NH2; N-terminus assumed)
- Ratio of peptide remaining relative to the starting concentration, human serum, 0 min ([1]; 500 μg/mL, 0 min): 100
- remaining at 0.05 h, 500 μg/mL ([1]; human, human serum, 3 min, read-out: Ratio of peptide remaining relative to the starting concentration, human serum, 3 min): 95%
- remaining at 10 min, 500 μg/mL ([1]; human, human serum, 10 min, read-out: Ratio of peptide remaining relative to the starting concentration, human serum, 10 min): 65.8%
- half-life ([1]; human, serum, 500 μg/mL): 16 min
- Number of days until complete healing (FIGS. 12 and 13) [2]: significantly smaller than the solvent control group
- Healing effect in burn-ulcer model (unhealed area ratio Day 6 and Day 8, FIGS. 14 and 15) [3]: showed a therapeutic effect also in the burn-ulcer model
- MIC, Escherichia coli [4]: 32/64
- MIC, Staphylococcus epidermidis [5]: 8> μg/mL
- MIC, Pseudomonas aeruginosa (clinical strain 12) [6]: 16/32
- MIC, Salmonella typhimurium [7]: 8/4
- MIC, Clostridium ramosum [8]: 32/16
- MIC, Bacteroides fragilis [9]: 64/128
